Experiments:
[1] = test system: U-46619-induced platelet aggregation; test: TP receptor platelet aggregation, rabbit; assay type: cell-based, New Zealand Rabbit
Experimental: Thrombosis Research 33:277-288.
TP Receptor Platelet Aggregation—Rabbit:
New Zealand Rabbit (2.75±0.25 kg) platelet rich plasma
Assay: Inhibition of 1.5 μM U-46619-induced platelet aggregation Incubation Time, Temp: 5 minutes at 37° C. Incubation Buffer Trisodium Citrate (0.13 M)-treated platelet rich plasma
Time of Assessment: 5 minutes
Quantification Method Optical Density Change

[2] = target: T1, Human Recombinant (E. coli) PPARgamma (Homo sapiens, UniProt P37231); test: PPAR gamma binding assay
T1 construct: host or cells: E. coli
T1 sequence (P37231 1-505): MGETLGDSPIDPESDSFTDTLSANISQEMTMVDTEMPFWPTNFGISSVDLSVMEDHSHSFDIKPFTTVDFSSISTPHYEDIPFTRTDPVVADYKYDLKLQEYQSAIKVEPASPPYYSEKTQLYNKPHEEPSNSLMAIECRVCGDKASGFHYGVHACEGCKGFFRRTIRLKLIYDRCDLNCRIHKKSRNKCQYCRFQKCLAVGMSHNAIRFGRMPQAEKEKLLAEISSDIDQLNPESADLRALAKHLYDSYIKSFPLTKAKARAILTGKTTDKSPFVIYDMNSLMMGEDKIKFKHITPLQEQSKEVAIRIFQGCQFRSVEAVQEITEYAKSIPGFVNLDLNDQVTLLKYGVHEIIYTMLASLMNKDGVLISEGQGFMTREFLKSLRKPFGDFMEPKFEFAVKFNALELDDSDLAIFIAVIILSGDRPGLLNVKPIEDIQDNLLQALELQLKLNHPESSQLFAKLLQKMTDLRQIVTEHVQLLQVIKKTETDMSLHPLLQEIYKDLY
Experimental: Incubation: 120 min. at 4° C.
The results are expressed as a percent of control specific binding ((measured specific binding/control specific binding)×100) obtained in the presence of the test compounds. The IC50 values (concentration causing a half-maximal inhibition of control specific binding) and Hill coefficients (nil) were determined by non-linear regression analysis of the competition curves generated with mean replicate values using Hill equation curve fitting (Y=D+[(A−D)/(1+(C/C50)nH)], where Y=specific binding, D=minimum specific binding, A=maximum specific binding, C=compound concentration, C50=IC50, and nH=slope factor). This analysis was performed using a software developed at Cerep (Hill software) and validated by comparison with data generated by the commercial software SigmaPlot 4.0 for Windows® (© 1997 by SPSS Inc.). The inhibition constants (Ki) were calculated using the Cheng Prusoff equation (Ki=IC50/(1+(L/KD)), where L=concentration of radioligand in the assay, and KD=affinity of the radioligand for the receptor).

[3] = test system: KKA^y mice; test: In vivo effect on serum glucose and other parameters in KKA^y mice; settings: dose not given
Experimental: 52 male KKA^y mice are obtained commercially (e.g., from Clea Japan) at an age of 6 weeks and put on a high fat diet upon arrival. Individual mice were housed in IVC Type II cages during both the acclimatization and the experimental phase. Both food (high fat diet) and water are supplied ad libitum.
1 animal per cage. […] Lights on at 06:00 a.m. Temperature: 21-25° C. Relative humidity target range: 55-60%.
Mice were randomized into treatment groups according to their 4-h fasting blood glucose.
4 hours after the last administration, non-fasting conditions.
Gamma irradiated high fat diet is commercially available (e.g., Research Diets, Inc. New Brunswick, N.J. (Product # D12266BI)).
Blood is collected into heparin containing glass capillaries which are subsequently centrifuged in a “Haematokrit 24” centrifuge (Hettich) at 15′200×g for 10 minutes at room temperature to obtain the hematocrit value.
The following serum parameters are determined on a COBAS INTEGRA 800 auto analyzer (Roche Diagnostics, Switzerland) using the reagents and protocols provided by the supplier.
All measurements are made on Day 14 of administration, except for the food intake and body weight measurements that are made on Day 12.

With `O=C(O)CC/C=C\CC1COC(c2coc3ccc(Cl)cc3c2=O)OC1c1ccccc1O` (racemic) [Compound 3, (Z)-6-(2-(6-Chloro-4-oxo-4H-chromen-3-yl)-4-(2-hydroxyphenyl)-1,3-dioxan-5-yl)hex-4-enoic acid] the “Inhibition of platelet aggregation (in words)” value [1] was “potent inhibitors of platelet aggregation”, the inhibition at 30 µM ([1]; Oryctolagus cuniculus, at 30 μM, 1.5 μM U-46619, platelet rich plasma) was 100% and the Ki ([2]; [3H]-rosiglitazone 10 nM, Cheng Prusoff, read-out: PPARγ binding Ki) was 2.7 µM. For the same compound, the IC50 ([2]; [3H]-rosiglitazone 10 nM, read-out: PPARγ binding IC50) was 7.4 µM, the “Binding to PPARgamma (in words)” value ([2]; compared with Compound A) was “binds to PPARgamma at least as well as Compound A” and the FFA ([3]; 14-day oral gavage BID) was “decreases the FFA”. For the same compound, the HbA1c levels ([3]; 14-day oral gavage BID) was “decreased”, the Heart weight ([3]; 14-day oral gavage BID) was “has no effect on heart weight” and the Body weight ([3]; oral gavage BID) was “do not alter body weight”.
